Values quoted from earlier work as cited in paper PMC4198332 (Chembiochem : a European journal of chemical biology, 2014).

What was measured:
[1] = system: Vancomycin-resistant E. faecalis (ATCC 700802); conditions: included for comparison
[2] = system: P. aeruginosa (ATCC 27853); conditions: included for comparison
[3] = system: Methicillin-resistant S. aureus (MRSA) (ATCC 33591); conditions: included for comparison
[4] = system: human red blood cells (hRBCs)
[5] = system: Methicillin-resistant S. epidermidis (MRSE) (RP62A); conditions: included for comparison
E. coli (ATCC 25922) = conditions: included for comparison

Pexiganan
MIC E. faecalis (+) [1]: 32 µg/mL | MIC P. Aeruginosa (−) [2]: 16 µg/mL | MIC MRSA (+) [3]: 16 µg/mL | Hemolysis HC50 [4]: --/120 μg/mL | MIC MRSE (+) [5]: 8 µg/mL | MIC E. coli (−) (E. coli (ATCC 25922)): 8 µg/mL
